Numbers after ± are expanded uncertainties.
Experiment: xn = mol fraction of the nth substance listed
Details: Liquid, Vibrating tube method

CCCC [butane] + CCC
Details | mass density [kg/m3]
340 K, 4496.8 kPa, x2 = 0.5 | 488.89 ± 0.35
340 K, 4514.8 kPa, x2 = 0.25 | 511.39 ± 0.34
340 K, 4981.8 kPa, x2 = 0.25 | 512.84 ± 0.35
340 K, 4991.2 kPa, x2 = 0.75 | 464.48 ± 0.34
340 K, 5012.2 kPa, x2 = 0.5 | 490.8 ± 0.35
340 K, 5479.2 kPa, x2 = 0.25 | 514.33 ± 0.36
340 K, 5511.6 kPa, x2 = 0.5 | 492.6 ± 0.36
340 K, 5517 kPa, x2 = 0.75 | 466.87 ± 0.35
340 K, 5958.5 kPa, x2 = 0.25 | 515.74 ± 0.36
340 K, 5990.2 kPa, x2 = 0.75 | 468.91 ± 0.36
340 K, 6031.2 kPa, x2 = 0.5 | 494.4 ± 0.37
340 K, 6477.8 kPa, x2 = 0.25 | 517.22 ± 0.37
340 K, 6495 kPa, x2 = 0.75 | 471.01 ± 0.36
340 K, 6534.4 kPa, x2 = 0.5 | 496.09 ± 0.38
340 K, 6953.2 kPa, x2 = 0.75 | 472.85 ± 0.37
340 K, 6991.8 kPa, x2 = 0.25 | 518.67 ± 0.38
340 K, 7014.4 kPa, x2 = 0.5 | 497.66 ± 0.39
360 K, 1968.3 kPa, x2 = 0.25 | 468.3 ± 0.3
360 K, 2483.2 kPa, x2 = 0.25 | 471.24 ± 0.31
360 K, 2528 kPa, x2 = 0.5 | 441.58 ± 0.31
360 K, 2981.1 kPa, x2 = 0.75 | 400.91 ± 0.3
360 K, 3014.4 kPa, x2 = 0.5 | 445.35 ± 0.32
360 K, 3030.5 kPa, x2 = 0.25 | 474.17 ± 0.32
360 K, 3479.5 kPa, x2 = 0.25 | 476.45 ± 0.33
360 K, 3504.1 kPa, x2 = 0.75 | 407.74 ± 0.3
360 K, 3530.7 kPa, x2 = 0.5 | 449 ± 0.32
360 K, 4004.6 kPa, x2 = 0.25 | 478.98 ± 0.33
360 K, 4023.8 kPa, x2 = 0.5 | 452.26 ± 0.33
360 K, 4034.2 kPa, x2 = 0.75 | 413.59 ± 0.31
360 K, 4494.7 kPa, x2 = 0.25 | 481.23 ± 0.34
360 K, 4499.5 kPa, x2 = 0.75 | 418.08 ± 0.32
360 K, 4529.2 kPa, x2 = 0.5 | 455.37 ± 0.34
360 K, 4959.4 kPa, x2 = 0.75 | 422.1 ± 0.32
360 K, 5018.1 kPa, x2 = 0.25 | 483.52 ± 0.35
360 K, 5025.4 kPa, x2 = 0.5 | 458.22 ± 0.34
360 K, 5477.4 kPa, x2 = 0.75 | 426.13 ± 0.33
360 K, 5492.3 kPa, x2 = 0.25 | 485.53 ± 0.36
360 K, 5525 kPa, x2 = 0.5 | 460.95 ± 0.35
360 K, 5965.8 kPa, x2 = 0.75 | 429.75 ± 0.34
360 K, 5999.9 kPa, x2 = 0.25 | 487.58 ± 0.37
360 K, 6017.8 kPa, x2 = 0.5 | 463.52 ± 0.36
360 K, 6472.2 kPa, x2 = 0.25 | 489.44 ± 0.37
360 K, 6494 kPa, x2 = 0.75 | 433.3 ± 0.35
360 K, 6530.6 kPa, x2 = 0.5 | 466.12 ± 0.37
360 K, 6960.2 kPa, x2 = 0.75 | 436.27 ± 0.35
360 K, 6966.9 kPa, x2 = 0.25 | 491.3 ± 0.38
360 K, 6972.7 kPa, x2 = 0.5 | 468.36 ± 0.37
380 K, 2507.8 kPa, x2 = 0.25 | 426.44 ± 0.3
380 K, 3006.4 kPa, x2 = 0.25 | 431.76 ± 0.31
380 K, 3508.7 kPa, x2 = 0.25 | 436.48 ± 0.31
380 K, 3523.1 kPa, x2 = 0.5 | 395.46 ± 0.31
380 K, 3998.7 kPa, x2 = 0.25 | 440.67 ± 0.32
380 K, 4001.1 kPa, x2 = 0.5 | 402.87 ± 0.32
380 K, 4476.5 kPa, x2 = 0.5 | 409.03 ± 0.33
380 K, 4501.1 kPa, x2 = 0.25 | 444.52 ± 0.33
380 K, 4538.7 kPa, x2 = 0.75 | 349.07 ± 0.3
380 K, 4998.7 kPa, x2 = 0.25 | 448.08 ± 0.34
380 K, 5019 kPa, x2 = 0.5 | 415.08 ± 0.33
380 K, 5025.3 kPa, x2 = 0.75 | 362.3 ± 0.31
380 K, 5491.2 kPa, x2 = 0.75 | 371.58 ± 0.31
380 K, 5494.5 kPa, x2 = 0.5 | 419.73 ± 0.34
380 K, 5497.5 kPa, x2 = 0.25 | 451.38 ± 0.34
380 K, 5962.5 kPa, x2 = 0.5 | 423.89 ± 0.34
380 K, 5986.2 kPa, x2 = 0.75 | 379.48 ± 0.32
380 K, 5995.5 kPa, x2 = 0.25 | 454.49 ± 0.35
380 K, 6480.6 kPa, x2 = 0.5 | 428.09 ± 0.35
380 K, 6502.4 kPa, x2 = 0.25 | 457.46 ± 0.36
380 K, 6503.9 kPa, x2 = 0.75 | 386.32 ± 0.33
380 K, 6897.6 kPa, x2 = 0.75 | 390.75 ± 0.33
380 K, 6908.8 kPa, x2 = 0.5 | 431.3 ± 0.36
380 K, 6952.8 kPa, x2 = 0.25 | 459.99 ± 0.37

mass density [kg/m3]
Details | 340 K | 360 K | 380 K
x2 = 0.25 | 499.52 ± 0.29 | 466.36 ± 0.28 | 424.79 ± 0.27
x2 = 0.5 | 475.99 ± 0.28 | – | 387.07 ± 0.27
x2 = 0.75 | 447.59 ± 0.28 | 398.44 ± 0.26 | –
